Measured values reported in patent US7566462B2, “Stable tablet formulation” (BioMarin Pharmaceutical Inc., priority 2004, dated 2009).

Assays:
[1] = room temperature; Berneggar and Blau 2002; cited from earlier work
[2] = Solid-state stability and hygroscopicity of polymorph B; format: physicochemical

C[C@H](O)[C@H](O)[C@H]1CNc2nc(N)[nH]c(=O)c2N1 [BH4, Tetrahydrobiopterin]
shelf-life [1]: < 8 h

C[C@H](O)[C@H](O)[C@H]1CNc2nc(N)[nH]c(=O)c2N1.Cl.Cl [polymorph B, (6R)-5,6,7,8-tetrahydrobiopterin dihydrochloride]
hygroscopicity [2]: slightly hygroscopic | thermodynamic stability [2]: highest thermodynamic stability above about 20 °C | behaviour at high humidity ([2]; percent relative humidity approaches 80%): appears to take up much more water, loses its crystalline form, and becomes labile to oxidation | stability of the anhydrous polymorph ([2]; room temperature, atmospheric oxygen, normal humidity): stable at room temperature to atmospheric oxygen and normal humidity
